Structures can show the parent of a compound that is named as a salt.
System: Drosophila larvae expressing wild-type TDP-43 in motor neurons
Assay: Drug screen: rescue of lethality caused by wild-type TDP-43 expression in motor neurons (D42 Gal4)
Type: in vivo
Details: for Preliminary rescue result: adults with normal wings: transgene WT2
Source text: […] Larvae expressing TDP-43 (wild type or mutant, as shown) are raised on drug containing food.
[…] Larvae expressing TDP-43 (wt or mutant) were raised on drug containing food.
Using a Drosophila model of ALS based on TDP-43 that recapitulates several aspects of the disease pathophysiology (33, 35), a drug screen aimed at identifying FDA approved compounds with neuroprotective potential in vivo were designed (FIG. 37A). […] This phenotype was used to screen for drug candidates with therapeutic potential as determined by their ability to rescue pupal lethality and produce viable adults with extended wings (FIG. 37A). […]
UAS TDP-43 males were crossed with D42-Gal4 female virgins on fly food containing either DMSO or pioglitazone. For DMSO controls, the same volume of DMSO as the corresponding drug concentration was added. Bromophenol blue was added to a final concentration of approximately 0.02% to ensure homogeneity. Crosses were made on drug food with 3 female virgins and 2 males in each vial, and were maintained at 25° C. unless noted. The parents were discarded after 5-7 days then the vials were screened for adult progeny with straight wings from day 14 to day 25. All adults were screened for TDP-43 expression by visualizing the YFP tag. Total number of pupae was counted on day 25. Percent survival was calculated using the formula (total number of straight-winged adults/total number of pupae)×100. All experiments were performed in triplicate.

| SMILES | Preliminary rescue result: adults with normal wings (30 μM in fly food) | further results |
| --- | --- | --- |
| CCC(=O)O[C@]1(C(=O)SCF)[C@H](C)C[C@H]2[C@@H]3C[C@H](F)C4=CC(=O)C=C[C@]4(C)[C@@]3(F)[C@@H](O)C[C@@]21C [Fluticasone Propionate] | 1 Adult Normal Wings Adults | – |
| COc1ccc2c(c1)C(=O)N(CCc1ccc(S(=O)(=O)NC(=O)NC3CCCCC3)cc1)C(=O)C2(C)C [Gliquidone] | 7 Adult Normal Wings Adults | – |
| Oc1c(Cl)cc(Cl)c(Cl)c1Cc1c(O)c(Cl)cc(Cl)c1Cl [Hexachlorophene] | 1 Adult Normal Wings Adults | – |
| CC(CNC1CCCCC1)OC(=O)c1ccccc1 (stereo not drawn) [Hexylcaine HCl] | 6 Adults Normal Wings | – |
| CC(C)Cn1cnc2c(N)nc3ccccc3c21 [Imiquimod] | 2 Adult Normal Wings Adults | – |
| C[C@H](O)C(=O)Nc1c(I)c(C(=O)NC(CO)CO)c(I)c(C(=O)NC(CO)CO)c1I [Iopamidol] | 3 Adult Normal Wings Adults | – |
| COCC(=O)Nc1c(I)c(C(=O)NCC(O)CO)c(I)c(C(=O)N(C)CC(O)CO)c1I (stereo not drawn) [Iopromide] | 1 Adult Normal Wings Adults | – |
| CC(C(=O)O)c1cccc(C(=O)c2ccccc2)c1 (stereo not drawn) [Ketoprofen] | – | Preliminary rescue result: adults with normal wings (50 μM in fly food): 1 Adult Normal Wings Adults |
| O=C(c1ccccc1)c1ccc2n1CCC2C(=O)O (stereo not drawn) [Ketorolac Tromethamine] | 2 Adult Normal Wings Adults | – |
| CCC(=O)O[C@@](Cc1ccccc1)(c1ccccc1)[C@@H](C)CN(C)C [Levopropoxyphene Napsylate] | 2 Adult Normal Wings Adults | – |
| N[C@@H](Cc1cc(I)c(Oc2ccc(O)c(I)c2)c(I)c1)C(=O)O [Liothyronine] | 3 Adult Normal Wings Adults | – |
| C[C@H](CCC(=O)O)[C@H]1CC[C@H]2[C@@H]3CC[C@@H]4C[C@H](O)CC[C@]4(C)[C@H]3CC[C@]12C [Lithocholic Acid] | 7 Adult Normal Wings Adults | – |
| O=c1cc(-c2ccc(O)c(O)c2)oc2cc(O)cc(O)c12 [Luteolin] | 1 Adult Normal Wings Adults | – |
| COc1ccc2[nH]cc(CCNC(C)=O)c2c1 [Melatonin] | – | Preliminary rescue result: adults with normal wings (50 μM in fly food): 4 Adults Normal Wings |
| CCC1(c2ccccc2)NC(=O)N(C)C1=O (stereo not drawn) [Mephenytoin] | 2/1 | – |
| CCCNC(C)(C)COC(=O)c1ccccc1 [Meprylcaine HCl] | 1 Adult Normal Wings Adults | – |
| O=S(=O)(O)CCS [Mesna] | – | Preliminary rescue result: adults with normal wings (50 μM in fly food): 4 Adult Normal Wings Adults |
| CN(C)C(=N)N=C(N)N [Metformin] | – | Rescue Effect (out of 15-20 pupae) (drug conc.) (Wild-type TDP-43, 25 μM, out of 15-20 pupae): 2 adults |
| CC[N+](C)(CC)CCOC(=O)C1c2ccccc2Oc2ccccc21 [Methantheline Bromide] | 1 Adult Normal Wings Adults | – |
| Cn1cc[nH]c1=S [Methimazole] | 1 Adult Normal Wings Adults | – |

| SMILES | Preliminary rescue result: adults with normal wings (30 μM in fly food) | further results |
| --- | --- | --- |
| C[N+]1(C)[C@@H]2CC[C@H]1C[C@@H](OC(=O)C(CO)c1ccccc1)C2 (stereo partly drawn) [Methylatropine Nitrate] | 2 Adult Normal Wings Adults | – |
| CC(=O)Nc1c(I)c(C(=O)N[C@H]2C(O)O[C@H](CO)[C@@H](O)[C@@H]2O)c(I)c(N(C)C(C)=O)c1I (stereo partly drawn) [Metrizamide] | – | Preliminary rescue result: adults with normal wings (50 μM in fly food): 2 Adults Normal Wings |
| Cc1cc(-c2ccccc2)nnc1NCCN1CCOCC1 [Minaprine Dihydrochloride] | – | Preliminary rescue result: adults with normal wings (50 μM in fly food): 1 Adult Normal Wings Adults |
| Cc1ccsc1/C=C/C1=NCCCN1C [Morantel Tartrate] | – | Preliminary rescue result: adults with normal wings (50 μM in fly food): 1 Adult Normal Wings Adults |
| CC(=O)N[C@@H](CC(C)C)C(=O)O [N-Acetyl-L-Leucine] | 1 Adult Normal Wings Adults | – |
| CN(C)C(=O)Oc1cccc([N+](C)(C)C)c1 [Neostigmine Bromide] | – | Preliminary rescue result: adults with normal wings (50 μM in fly food): 5 Adults Straight Wings |
| CC1(C)NC(=O)N(c2ccc([N+](=O)[O-])c(C(F)(F)F)c2)C1=O [Nilutamide] | 11 Adult Normal Wings Adults | – |
| O=C1NCCN1c1ncc([N+](=O)[O-])s1 [Niridazole] | – | Preliminary rescue result: adults with normal wings (50 μM in fly food): 3 Adult Normal Wings Adults |
| CNC(=C[N+](=O)[O-])NCCSCc1csc(CN(C)C)n1 [Nizatidine] | 2 Adult Normal Wings Adults | – |
| Cc1nccn1CC1CCc2c(c3ccccc3n2C)C1=O (stereo not drawn) [Ondansetron Hcl] | 1 Adult Normal Wings Adults | – |
| C=CCOc1ccccc1OCC(O)CNC(C)C (stereo not drawn) [Oxprenolol Hcl] | 1 Adult Normal Wings Adults | – |
| COc1ccc(C(=O)c2ccccc2)c(O)c1 [Oxybenzone] | 1 Adult Normal Wings Adults | – |
| CCCCc1ccc2[nH]c(NC(=O)OC)nc2c1 [Parbendazole] | 2/1 | – |
| C#CCN(C)Cc1ccccc1 [Pargyline Hydrochloride] | – | Preliminary rescue result: adults with normal wings (50 μM in fly food): 1 Adult Normal Wings Adults |
| CC(C)(C)NC[C@H](O)COc1ccccc1C1CCCC1 [Penbutolol Sulfate] | 1 Adult Normal Wings Adults | – |
| Nc1ccc(/N=N/c2ccccc2)c(N)n1 [Phenazopyridine Hydrochloride] | 1 Adult Normal Wings Adults | – |
| CC(N)C(O)c1ccccc1 (stereo not drawn) [Phenylpropanolamine Hydrochloride] | – | Preliminary rescue result: adults with normal wings (50 μM in fly food): 1 Adult: 1 Normal Wing Adults |
| COc1cc([C@@H]2c3cc4c(cc3[C@H](O)[C@H]3COC(=O)[C@H]23)OCO4)cc(OC)c1OC [Podophyllotoxin] | 8 Adult Normal Wings Adults | – |
| COc1cc2nc(N3CCN(C(=O)c4ccco4)CC3)nc(N)c2cc1OC [Prazosin Hydrochloride] | 1 Adult Normal Wings Adults | – |
| CCOC(=O)O[C@]1(C(=O)COC(=O)CC)CC[C@H]2[C@@H]3CCC4=CC(=O)C=C[C@]4(C)[C@H]3[C@@H](O)C[C@@]21C [Prednicarbate] | 2 Adult Normal Wings Adults | – |

| SMILES | Preliminary rescue result: adults with normal wings (30 μM in fly food) | further results |
| --- | --- | --- |
| COc1cc(NC(C)CCCN)c2ncccc2c1 (stereo not drawn) [Primaquine Diphosphate] | – | Preliminary rescue result: adults with normal wings (50 μM in fly food): 1 Adult Normal Wings Adults |
| OC(CCN1CCCC1)(c1ccccc1)C1CCCCC1 (stereo not drawn) [Procyclidine HCL] | 1 Adult Normal Wings Adults | – |
| CCCOc1cc(N)ccc1C(=O)OCCN(CC)CC [Propoxycaine Hcl] | 1 Adult Normal Wings Adults | – |
| CCCc1cc(C(N)=S)ccn1 [Prothionamide] | 1 Adult Normal Wings Adults | – |
| CNCCCC1c2ccccc2C=Cc2ccccc21 [Protriptyline Hydrochloride] | 1 Adult Normal Wings Adults | – |
| CCOC(=O)[C@H](CCc1ccccc1)N[C@@H](C)C(=O)N1Cc2ccccc2C[C@H]1C(=O)O [Quinapril Hcl] | 2 Adult Normal Wings Adults | – |
| COc1ccc2cc([C@@H](C)C(=O)[O-])ccc2c1.[Na+] [R-Naproxen Na Salt] | 2 Adult Normal Wings Adults | – |
| CCN1CCC[C@H]1CNC(=O)c1c(O)c(Cl)cc(Cl)c1OC [Raclopride] | – | Preliminary rescue result: adults with normal wings (50 μM in fly food): 2 Adults Normal Wings |
| CCOC(=O)[C@H](CCc1ccccc1)N[C@@H](C)C(=O)N1[C@H](C(=O)O)C[C@@H]2CCC[C@@H]21 [Ramipril] | 1 Adult Normal Wings Adults | – |
| CCOc1cc(CC(=O)N[C@@H](CC(C)C)c2ccccc2N2CCCCC2)ccc1C(=O)O [Repaglinide] | – | Preliminary rescue result: adults with normal wings (50 μM in fly food): 1 Adult Normal Wings Adults |
| CCC(=O)[C@@]1(C)[C@H](C)C[C@H]2[C@@H]3CCC4=CC(=O)C=C[C@]4(C)[C@H]3[C@@H](O)C[C@@]21C [Rimexolone] | 1 Adult Normal Wing Adults | – |
| Cc1nc2n(c(=O)c1CCN1CCC(c3noc4cc(F)ccc34)CC1)CCCC2 [Risperidone] | 1 Adult Normal Wing Adults | – |
| CC(NCCc1ccc(O)cc1)C(O)c1ccc(O)cc1 (stereo not drawn) [Ritodrine] | – | Preliminary rescue result: adults with normal wings (50 μM in fly food): 2 Adults Normal Wings |
| COc1ccc(C2CNC(=O)C2)cc1OC1CCCC1 (stereo not drawn) [Rolipram] | 1 Adult Normal Wings Adults | – |
| CN1CCN(c2c(F)cc3c(=O)c(C(=O)O)cn4c3c2SCC4)CC1 [Rufloxacin] | 1 Adult Normal Wings Adults | – |
| CN[C@@H]1[C@@H](O)[C@@H](O[C@@H]2[C@@H](O)[C@H](O[C@H]3OC(CN)=CC[C@H]3N)[C@@H](N)C[C@H]2N)OC[C@]1(C)O [Sisomicin Sulfate] | – | Preliminary rescue result: adults with normal wings (50 μM in fly food): 1 Adult Normal Wings Adults |
| CC1(C)[C@H](C(=O)O)N2C(=O)C[C@H]2S1(=O)=O [Sulbactam] | 1 Adult Normal Wings Adults | – |
| COc1cnc(NS(=O)(=O)c2ccc(N)cc2)nc1 [Sulfameter] | 3 Adult Normal Wings Adults | – |
| Nc1ccc(S(N)(=O)=O)cc1 [Sulfanilamide] | – | Preliminary rescue result: adults with normal wings (50 μM in fly food): 1 Adult Normal Wings Adults |
| Cc1noc(NS(=O)(=O)c2ccc(N)cc2)c1C [Sulfisoxazole] | – | Preliminary rescue result: adults with normal wings (50 μM in fly food): 1 Adult Normal Wings Adults |
